Source: patent EP4722212A1, “NOVEL COMPOUND FOR INHIBITING PROTEIN KINASES AND PHARMACEUTICAL COMPOSITION COMPRISING SAME” (Magicbullettherapeutics Co., Ltd., priority 2023, dated 2024)
Like-named read-outs stand apart in the source and are kept apart here.

Assays:
Assay in all cases: Kinase panel
Assay type in all cases: biochemical
DMPK2 = DMPK2 (Homo sapiens, UniProt Q6DT37); settings: DMPK2, 1 µM; read-out: residual enzyme activity
Summary of the method: (§1)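 Compounds were applied once, at 1 µM, to each kinase of a broad biochemical panel, and remaining enzyme activity was calculated. A kinase counted as inhibited if that remaining activity fell to 40% or below.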

MKK6 = MKK6 (Homo sapiens, UniProt P52564); settings: MKK6, 1 µM; read-out: residual enzyme activity
Summary of the method: as §1

TLK2 = TLK2 (Homo sapiens, UniProt Q86UE8); settings: TLK2, 1 µM; read-out: residual enzyme activity
Summary of the method: as §1

PDGFRA = PDGFRA (Homo sapiens, UniProt P16234); settings: read-out: residual enzyme activity
Summary of the method: as §1

CDC7/DBF4 = CDC7/DBF4 (Homo sapiens, UniProt O00311); settings: CDC7/DBF4, 1 µM; read-out: residual enzyme activity
Summary of the method: as §1

IR = IR (Homo sapiens, UniProt P06213); settings: read-out: residual enzyme activity
Summary of the method: as §1

PIM2 = PIM2 (Homo sapiens, UniProt Q9P1W9); settings: PIM2, 1 µM; read-out: residual enzyme activity
Summary of the method: as §1

LYN = LYN (Homo sapiens, UniProt P07948); settings: read-out: residual enzyme activity
Summary of the method: as §1

LRRK2 = LRRK2 (Homo sapiens, UniProt Q5S007); settings: LRRK2, 1 µM; read-out: residual enzyme activity
Summary of the method: as §1

LKB1 = LKB1 (Homo sapiens, UniProt Q15831); settings: LKB1, 1 µM; read-out: residual enzyme activity
Summary of the method: as §1

P70S6K/RPS6KB1 = P70S6K/RPS6KB1 (Homo sapiens, UniProt P23443); settings: read-out: residual enzyme activity
Summary of the method: as §1

FAK/PTK2 = FAK/PTK2 (Homo sapiens, UniProt Q05397); settings: FAK/PTK2, 1 µM; read-out: residual enzyme activity
Summary of the method: as §1

AURORA B = AURORA B (Homo sapiens, UniProt Q96GD4); settings: read-out: residual enzyme activity
Summary of the method: as §1

AURORA A = AURORA A (Homo sapiens, UniProt O14965); settings: read-out: residual enzyme activity
Summary of the method: as §1

P70S6KB/RPS6KB2 = P70S6KB/RPS6KB2 (Homo sapiens, UniProt Q9UBS0); settings: read-out: residual enzyme activity
Summary of the method: as §1

NEK3 = NEK3 (Homo sapiens, UniProt P51956); settings: NEK3, 1 µM; read-out: residual enzyme activity
Summary of the method: as §1

GSK3A = GSK3A (Homo sapiens, UniProt P49840); settings: read-out: residual enzyme activity
Summary of the method: as §1

ULK1 = ULK1 (Homo sapiens, UniProt O75385); settings: ULK1, 1 µM; read-out: residual enzyme activity
Summary of the method: as §1

MINK/MINK1 = MINK/MINK1 (Homo sapiens, UniProt Q8N4C8); settings: MINK/MINK1, 1 µM; read-out: residual enzyme activity
Summary of the method: as §1

MSK1/RPS6KA5 = MSK1/RPS6KA5 (Homo sapiens, UniProt O75582); settings: MSK1/RPS6KA5, 1 µM; read-out: residual enzyme activity
Summary of the method: as §1

TAOK2/TAO1 = TAOK2/TAO1 (Homo sapiens, UniProt Q9UL54); settings: TAOK2/TAO1, 1 µM; read-out: residual enzyme activity
Summary of the method: as §1

CKIEPSILON = CKIEPSILON (Homo sapiens, UniProt P49674); settings: read-out: residual enzyme activity
Summary of the method: as §1

CAMK1B = CAMK1B (Homo sapiens, UniProt Q6P2M8); settings: read-out: residual enzyme activity
Summary of the method: as §1

PKCNU/PRKD3 = PKCNU/PRKD3 (Homo sapiens, UniProt O94806); settings: PKCnu/PRKD3, 1 µM; read-out: residual enzyme activity
Summary of the method: as §1

RIPK5 = RIPK5 (Homo sapiens, UniProt Q6XUX3); settings: RIPK5, 1 µM; read-out: residual enzyme activity
Summary of the method: as §1

C-SRC = C-SRC (Homo sapiens, UniProt P12931); settings: read-out: residual enzyme activity
Summary of the method: as §1

MEKK2 = MEKK2 (Homo sapiens, UniProt Q9Y2U5); settings: MEKK2, 1 µM; read-out: residual enzyme activity
Summary of the method: as §1

C-KIT = C-KIT (Homo sapiens, UniProt P10721); settings: read-out: residual enzyme activity
Summary of the method: as §1

PKCETA = PKCETA (Homo sapiens, UniProt P24723); settings: read-out: residual enzyme activity
Summary of the method: as §1

CTK/MATK = CTK/MATK (Homo sapiens, UniProt P42679); settings: read-out: residual enzyme activity
Summary of the method: as §1

TBK1 = TBK1 (Homo sapiens, UniProt Q9UHD2); settings: TBK1, 1 µM; read-out: residual enzyme activity
Summary of the method: as §1

CDK2/CYCLIN A = CDK2/CYCLIN A (Homo sapiens, UniProt P24941); settings: read-out: residual enzyme activity
Summary of the method: as §1

NEK11 = NEK11 (Homo sapiens, UniProt Q8NG66); settings: NEK11, 1 µM; read-out: residual enzyme activity
Summary of the method: as §1

Sequence of CTK/MATK (P42679 whole entry): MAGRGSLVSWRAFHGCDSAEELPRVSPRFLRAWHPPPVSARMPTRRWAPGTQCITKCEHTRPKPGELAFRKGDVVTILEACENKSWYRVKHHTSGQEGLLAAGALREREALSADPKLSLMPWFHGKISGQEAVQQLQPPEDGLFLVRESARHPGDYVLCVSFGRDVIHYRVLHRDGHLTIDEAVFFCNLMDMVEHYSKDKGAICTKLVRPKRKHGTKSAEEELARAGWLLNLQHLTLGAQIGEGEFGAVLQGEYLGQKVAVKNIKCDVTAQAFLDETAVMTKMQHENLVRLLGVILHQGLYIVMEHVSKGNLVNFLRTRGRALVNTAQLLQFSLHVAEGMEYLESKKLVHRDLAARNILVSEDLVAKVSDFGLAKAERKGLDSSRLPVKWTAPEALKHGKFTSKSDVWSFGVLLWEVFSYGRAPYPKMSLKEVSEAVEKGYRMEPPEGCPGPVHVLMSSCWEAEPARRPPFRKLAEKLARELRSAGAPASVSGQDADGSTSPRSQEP
Sequence of LYN (P07948 whole entry, species assumed): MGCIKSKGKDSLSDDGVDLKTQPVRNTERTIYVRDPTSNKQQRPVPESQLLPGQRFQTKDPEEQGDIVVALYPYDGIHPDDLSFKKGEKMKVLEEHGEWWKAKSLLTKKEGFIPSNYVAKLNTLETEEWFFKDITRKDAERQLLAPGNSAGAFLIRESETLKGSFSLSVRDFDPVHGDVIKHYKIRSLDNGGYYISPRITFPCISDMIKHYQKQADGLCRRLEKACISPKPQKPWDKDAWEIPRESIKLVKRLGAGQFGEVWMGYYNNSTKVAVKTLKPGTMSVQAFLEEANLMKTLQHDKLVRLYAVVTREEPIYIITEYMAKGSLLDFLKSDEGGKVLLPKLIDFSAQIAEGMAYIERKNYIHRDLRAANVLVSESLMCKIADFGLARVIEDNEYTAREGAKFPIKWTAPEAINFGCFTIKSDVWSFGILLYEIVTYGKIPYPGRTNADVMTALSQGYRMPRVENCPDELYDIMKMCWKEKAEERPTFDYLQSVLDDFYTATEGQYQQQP
Sequence of MSK1/RPS6KA5 (O75582 whole entry): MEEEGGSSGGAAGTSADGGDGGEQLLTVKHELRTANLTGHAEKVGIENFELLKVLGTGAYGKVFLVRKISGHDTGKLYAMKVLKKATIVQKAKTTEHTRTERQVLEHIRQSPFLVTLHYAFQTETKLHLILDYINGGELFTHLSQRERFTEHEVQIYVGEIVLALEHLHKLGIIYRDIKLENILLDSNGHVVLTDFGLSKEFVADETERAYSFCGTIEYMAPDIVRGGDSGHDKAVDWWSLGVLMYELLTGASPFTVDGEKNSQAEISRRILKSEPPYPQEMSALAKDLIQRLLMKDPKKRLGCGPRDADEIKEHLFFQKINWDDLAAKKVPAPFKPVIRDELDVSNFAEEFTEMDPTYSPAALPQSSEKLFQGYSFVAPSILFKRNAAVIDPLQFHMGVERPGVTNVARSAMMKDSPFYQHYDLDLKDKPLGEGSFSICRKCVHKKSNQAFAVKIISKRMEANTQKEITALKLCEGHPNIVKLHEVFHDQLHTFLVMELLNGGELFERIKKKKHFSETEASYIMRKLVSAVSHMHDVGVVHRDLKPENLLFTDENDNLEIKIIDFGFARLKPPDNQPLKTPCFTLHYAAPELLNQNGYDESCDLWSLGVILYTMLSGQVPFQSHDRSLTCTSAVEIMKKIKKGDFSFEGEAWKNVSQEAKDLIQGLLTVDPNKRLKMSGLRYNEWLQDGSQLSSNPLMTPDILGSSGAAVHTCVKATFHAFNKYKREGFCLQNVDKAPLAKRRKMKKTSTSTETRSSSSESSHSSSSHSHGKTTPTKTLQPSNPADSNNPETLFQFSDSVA
Sequence of FAK/PTK2 (Q05397 whole entry): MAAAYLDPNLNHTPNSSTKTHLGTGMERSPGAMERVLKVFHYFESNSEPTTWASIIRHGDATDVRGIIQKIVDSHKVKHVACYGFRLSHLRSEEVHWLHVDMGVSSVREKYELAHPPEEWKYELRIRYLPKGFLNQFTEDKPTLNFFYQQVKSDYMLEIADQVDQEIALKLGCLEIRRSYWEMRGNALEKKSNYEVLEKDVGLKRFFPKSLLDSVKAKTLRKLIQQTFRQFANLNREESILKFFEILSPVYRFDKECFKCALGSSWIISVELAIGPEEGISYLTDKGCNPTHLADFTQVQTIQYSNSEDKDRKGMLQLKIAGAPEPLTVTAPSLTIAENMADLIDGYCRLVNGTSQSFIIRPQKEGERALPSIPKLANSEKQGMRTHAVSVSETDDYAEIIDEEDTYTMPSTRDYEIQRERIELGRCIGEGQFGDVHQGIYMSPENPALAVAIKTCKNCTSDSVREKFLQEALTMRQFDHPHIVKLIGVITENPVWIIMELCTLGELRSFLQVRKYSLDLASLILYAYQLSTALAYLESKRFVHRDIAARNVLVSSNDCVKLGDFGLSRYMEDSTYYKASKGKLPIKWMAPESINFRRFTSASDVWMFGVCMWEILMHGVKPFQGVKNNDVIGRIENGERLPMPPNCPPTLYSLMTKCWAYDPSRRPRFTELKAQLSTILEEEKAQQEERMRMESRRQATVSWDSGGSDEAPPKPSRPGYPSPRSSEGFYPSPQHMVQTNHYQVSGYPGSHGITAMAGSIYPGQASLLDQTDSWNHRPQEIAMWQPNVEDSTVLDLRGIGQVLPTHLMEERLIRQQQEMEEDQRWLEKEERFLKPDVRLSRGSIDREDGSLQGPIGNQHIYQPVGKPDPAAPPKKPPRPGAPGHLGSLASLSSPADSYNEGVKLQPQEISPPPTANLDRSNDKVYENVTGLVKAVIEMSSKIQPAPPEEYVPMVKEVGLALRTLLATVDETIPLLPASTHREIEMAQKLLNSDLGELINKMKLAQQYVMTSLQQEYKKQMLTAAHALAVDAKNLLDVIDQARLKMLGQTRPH
Sequence of TBK1 (Q9UHD2 whole entry, species assumed): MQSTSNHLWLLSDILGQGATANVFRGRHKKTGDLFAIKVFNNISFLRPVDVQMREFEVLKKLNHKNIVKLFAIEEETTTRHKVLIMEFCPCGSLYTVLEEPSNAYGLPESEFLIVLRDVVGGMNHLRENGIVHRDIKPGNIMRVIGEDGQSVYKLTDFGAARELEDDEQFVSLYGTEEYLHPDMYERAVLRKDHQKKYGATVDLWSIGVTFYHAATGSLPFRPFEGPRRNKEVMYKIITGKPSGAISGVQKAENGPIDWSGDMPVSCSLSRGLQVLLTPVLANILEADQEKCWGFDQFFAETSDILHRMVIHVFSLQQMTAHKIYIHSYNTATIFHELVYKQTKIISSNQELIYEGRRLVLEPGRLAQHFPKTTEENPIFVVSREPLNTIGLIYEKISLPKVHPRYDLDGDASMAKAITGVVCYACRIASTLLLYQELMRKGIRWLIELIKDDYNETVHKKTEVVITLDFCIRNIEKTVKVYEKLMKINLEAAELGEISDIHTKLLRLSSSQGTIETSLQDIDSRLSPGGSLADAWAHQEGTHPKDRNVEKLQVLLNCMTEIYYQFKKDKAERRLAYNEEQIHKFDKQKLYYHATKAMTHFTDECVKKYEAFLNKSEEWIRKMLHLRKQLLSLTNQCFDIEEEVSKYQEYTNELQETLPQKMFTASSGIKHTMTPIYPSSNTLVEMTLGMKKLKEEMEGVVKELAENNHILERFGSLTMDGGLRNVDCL
Sequence of AURORA B (Q96GD4 whole entry): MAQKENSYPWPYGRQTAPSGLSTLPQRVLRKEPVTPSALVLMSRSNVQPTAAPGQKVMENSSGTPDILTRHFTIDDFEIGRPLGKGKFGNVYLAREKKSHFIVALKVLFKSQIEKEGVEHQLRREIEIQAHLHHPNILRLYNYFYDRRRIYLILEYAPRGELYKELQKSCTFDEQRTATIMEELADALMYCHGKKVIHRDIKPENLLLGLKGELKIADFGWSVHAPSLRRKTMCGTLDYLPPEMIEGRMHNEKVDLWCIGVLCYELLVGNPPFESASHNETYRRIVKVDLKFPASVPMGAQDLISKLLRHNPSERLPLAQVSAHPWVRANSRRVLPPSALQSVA
Sequence of NEK3 (P51956 whole entry, species assumed): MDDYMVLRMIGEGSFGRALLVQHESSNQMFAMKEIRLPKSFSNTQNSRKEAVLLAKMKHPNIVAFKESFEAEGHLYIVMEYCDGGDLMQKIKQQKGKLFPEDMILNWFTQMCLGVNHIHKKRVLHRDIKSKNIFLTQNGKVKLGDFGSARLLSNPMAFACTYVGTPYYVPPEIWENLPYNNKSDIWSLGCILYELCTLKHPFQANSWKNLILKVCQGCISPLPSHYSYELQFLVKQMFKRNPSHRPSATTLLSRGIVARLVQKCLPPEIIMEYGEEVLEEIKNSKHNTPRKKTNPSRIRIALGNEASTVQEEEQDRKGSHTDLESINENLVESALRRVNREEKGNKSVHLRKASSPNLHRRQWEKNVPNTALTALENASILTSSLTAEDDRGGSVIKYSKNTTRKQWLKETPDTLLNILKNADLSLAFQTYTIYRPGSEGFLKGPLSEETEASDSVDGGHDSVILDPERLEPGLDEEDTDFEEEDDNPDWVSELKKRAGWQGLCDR
Sequence of CKIEPSILON (P49674 whole entry, species assumed): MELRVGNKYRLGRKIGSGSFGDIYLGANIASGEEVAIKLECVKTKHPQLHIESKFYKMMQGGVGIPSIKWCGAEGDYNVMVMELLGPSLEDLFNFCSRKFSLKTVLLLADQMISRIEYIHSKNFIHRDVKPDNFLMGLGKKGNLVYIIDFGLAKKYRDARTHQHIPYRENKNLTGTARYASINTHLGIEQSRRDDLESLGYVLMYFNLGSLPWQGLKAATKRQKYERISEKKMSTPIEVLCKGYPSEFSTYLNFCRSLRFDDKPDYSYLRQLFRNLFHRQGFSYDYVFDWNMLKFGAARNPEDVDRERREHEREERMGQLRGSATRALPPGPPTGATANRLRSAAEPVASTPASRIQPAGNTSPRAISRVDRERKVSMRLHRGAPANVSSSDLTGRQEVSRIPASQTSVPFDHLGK

Q: For `Cc1ccc(Nc2ncc3c(n2)C2(CC2)C(=O)N(c2cc(NC(=O)c4cccc(C(F)(F)F)c4)ccc2C)C3)cn1` [Compound 51, N-(4-methyl-3-(2'-((6-methylpyridin-3-yl)amino)-7'-oxo-5'H-spiro[cyclopropane-1,8'-pyrido[4,3-d]pyrimidine]-6'(7'H)-yl)phenyl)-3-(trifluoromethyl)benzamide], which remaining activity at 1 µM (DMPK2) is on record?
A: > 40%

Q: What about the remaining activity at 1 µM (MKK6) of the same compound?
A: > 40%

Q: And the remaining activity at 1 µM (TLK2)?
A: > 40%

Q: And the remaining activity at 1 µM (PDGFRA)?
A: ≤ 40%

Q: What about the remaining activity at 1 µM (CDC7/DBF4) of the same compound?
A: > 40%

Q: What about the remaining activity at 1 µM (IR) of the same compound?
A: > 40%

Q: And the remaining activity at 1 µM (PIM2)?
A: > 40%

Q: What about the remaining activity at 1 µM (LYN) of the same compound?
A: ≤ 40%

Q: And the remaining activity at 1 µM (LRRK2)?
A: ≤ 40%

Q: What about the remaining activity at 1 µM (LKB1) of the same compound?
A: > 40%

Q: And the remaining activity at 1 µM (P70S6K/RPS6KB1; p70S6K/RPS6KB1, 1 µM)?
A: ≤ 40%

Q: And the remaining activity at 1 µM (FAK/PTK2)?
A: ≤ 40%

Q: What about the remaining activity at 1 µM (AURORA B) of the same compound?
A: > 40%

Q: What about the remaining activity at 1 µM (AURORA A) of the same compound?
A: > 40%

Q: And the remaining activity at 1 µM (P70S6KB/RPS6KB2; p70S6Kb/RPS6KB2, 1 µM)?
A: > 40%

Q: What about the remaining activity at 1 µM (NEK3) of the same compound?
A: > 40%

Q: And the remaining activity at 1 µM (GSK3A; GSK3a)?
A: > 40%

Q: And the remaining activity at 1 µM (ULK1)?
A: > 40%

Q: What about the remaining activity at 1 µM (MINK/MINK1) of the same compound?
A: ≤ 40%

Q: What about the remaining activity at 1 µM (MSK1/RPS6KA5) of the same compound?
A: > 40%

Q: What about the remaining activity at 1 µM (TAOK2/TAO1) of the same compound?
A: ≤ 40%

Q: What about the remaining activity at 1 µM (CKIEPSILON; CKlepsilon) of the same compound?
A: > 40%

Q: And the remaining activity at 1 µM (CAMK1B; CAMK1b)?
A: > 40%

Q: And the remaining activity at 1 µM (PKCNU/PRKD3)?
A: > 40%

Q: And the remaining activity at 1 µM (RIPK5)?
A: > 40%

Q: And the remaining activity at 1 µM (C-SRC; c-Src)?
A: ≤ 40%

Q: And the remaining activity at 1 µM (MEKK2)?
A: ≤ 40%

Q: What about the remaining activity at 1 µM (C-KIT; c-Kit) of the same compound?
A: ≤ 40%

Q: What about the remaining activity at 1 µM (PKCETA) of the same compound?
A: > 40%

Q: What about the remaining activity at 1 µM (CTK/MATK) of the same compound?
A: > 40%

Q: What about the remaining activity at 1 µM (TBK1) of the same compound?
A: > 40%

Q: What about the remaining activity at 1 µM (CDK2/CYCLIN A) of the same compound?
A: > 40%

Q: What about the remaining activity at 1 µM (NEK11) of the same compound?
A: ≤ 40%

Q: Which results are given for `Cc1cn(-c2cc(C(=O)Nc3ccc(C)c(N4Cc5cnc(NC6CC6)nc5C5(CC5)C4=O)c3)cc(C(F)(F)F)c2)cn1` [Compound 8, N-(3-(2'-(cyclopropylamino)-7'-oxo-5'H-spiro[cyclopropane-1,8'-pyrido[4,3-d]pyrimidine]-6'(7'H)-yl)-4-methylphenyl)-3-(4-methyl-1H-imidazol-1-yl)-5-(trifluoromethyl)benzamide]?
A: remaining activity at 1 µM (DMPK2): > 40%; remaining activity at 1 µM (MKK6): > 40%; remaining activity at 1 µM (TLK2): > 40%; remaining activity at 1 µM (PDGFRA): ≤ 40%; remaining activity at 1 µM (CDC7/DBF4): > 40%; remaining activity at 1 µM (IR): > 40%; remaining activity at 1 µM (PIM2): > 40%; remaining activity at 1 µM (LYN): ≤ 40%; remaining activity at 1 µM (LRRK2): > 40%; remaining activity at 1 µM (LKB1): > 40%; remaining activity at 1 µM (P70S6K/RPS6KB1; P70S6K/RPS6KB1, 1 µM): > 40%; remaining activity at 1 µM (FAK/PTK2): ≤ 40%; remaining activity at 1 µM (AURORA B): > 40%; remaining activity at 1 µM (AURORA A): > 40%; remaining activity at 1 µM (P70S6KB/RPS6KB2; P70S6KB/RPS6KB2, 1 µM): > 40%; remaining activity at 1 µM (NEK3): > 40%; remaining activity at 1 µM (GSK3A; GSK3A): > 40%; remaining activity at 1 µM (ULK1): > 40%; remaining activity at 1 µM (MINK/MINK1): ≤ 40%; remaining activity at 1 µM (MSK1/RPS6KA5): > 40%; remaining activity at 1 µM (TAOK2/TAO1): ≤ 40%; remaining activity at 1 µM (CKIEPSILON; CKIEPSILON): > 40%; remaining activity at 1 µM (CAMK1B; CAMK1B): > 40%; remaining activity at 1 µM (PKCNU/PRKD3): > 40%; remaining activity at 1 µM (RIPK5): > 40%; remaining activity at 1 µM (C-SRC; C-SRC): ≤ 40%; remaining activity at 1 µM (MEKK2): ≤ 40%; remaining activity at 1 µM (C-KIT; C-KIT): ≤ 40%; remaining activity at 1 µM (PKCETA): > 40%; remaining activity at 1 µM (CTK/MATK): > 40%; remaining activity at 1 µM (TBK1): > 40%; remaining activity at 1 µM (CDK2/CYCLIN A): > 40%; remaining activity at 1 µM (NEK11): > 40%
